Test results taken from paper PMC6270263, “Factors Influencing the Antifolate Activity of Synthetic Tea-Derived Catechins” (Molecules, 2013).
Where two headings read alike, the source gives them in different places.

How the values were obtained:
[1] = UV-visible absorption spectra at different pH (ionization state); type: physicochemical; conditions: UV-visible spectra; pH range 5.0–9.0 for TMCG and TMECG
Procedure: It has been shown that the protonation state of methotrexate, trimethoprim, and pyrimethamine modulates the binding of these antifolates to DHFRs from several sources. […] The absorbance maximum at 278 nm undergoes a bathochromic displacement to 328 nm, which is greatest at alkaline pH (pH > 9.0).
To determine if the spectral changes in the SYCG and SYECG solutions with pH were due to an irreversible oxidation reaction or to a reversible protonation step, a pH titration experiment was carried out. An alkaline solution of SYCG and SYECG (pH 8.5) was acidified to pH 2.5 by the addition of dilute HCl. A change in the spectra was observed, indicating a reversible protonation reaction. The spectral changes with pH observed in SYCG and SYECG can be attributed to the hydroxyl group para on the ester-bonded gallate moiety. At acidic pH, these derivatives are mainly present as protonated species, whereas at basic pH or values near neutrality, these derivatives evolve toward the deprotonated species, which are stabilized by resonance (Scheme 3). […] As described, an important factor that decreases catechin bioavailability might be their inability to easily cross cellular membranes by passive diffusion. The presence of several hydroxyl groups in these molecules gives them a high hydrophilic character, which increases the difficulty of passing across lipid membranes.
Ultraviolet-visible absorption spectra of catechins at different pHs were recorded on a UV-Vis Perkin-Elmer Lambda-2 spectrophotometer with a spectral bandwidth of 1 nm at a scan speed of 60 nm s^−1. The experiments were performed in the same buffer as described for DHFR binding studies, and the ionic strength remained constant at an optimum value of 0.15 over the pH range that was used. The pH of the reaction was measured before and after the experiment.

[2] = tested on: SK-MEL-28 melanoma cell line; assay: MTT cell proliferation assay in melanoma cells; type: cell-based, human; conditions: Homo sapiens, SK-MEL-28, 144 h, SK-MEL-28, after 6 days of treatment; read-out: Half-maximal inhibitory concentration (IC50)
Excerpt: Antifolate compounds are designed to inhibit DHFR and act specifically during DNA and RNA synthesis, making them more toxic to rapidly dividing cells. Recent evidences indicate that tea-catechins and derived compounds could inhibit DHFR and block the folate cycle in cancer cells. Although inhibition of DHFR by these compounds could be a plausible explanation for their antifolate activity, the possibility of these compounds targeting (folate)-enzymes other than DHFR could not be excluded. To determine whether these newly synthetized compounds disrupt the folate cycle in cell culture, we studied their antiproliferative activity in the melanoma cell line SK-MEL-28 (Table 3). Concentration- and time-dependent effects were analyzed using the colorimetric 4,5-(3)-dimethylthiazol-2-yl)-2,5-diphenyltetrazolium bromide (MTT) method.
The human melanoma cell line SK-MEL-28 was obtained from American Type Culture Collection (ATCC, Manassas, VA, USA) and was maintained in Eagles’s Minimum Essential Medium (EMEM) supplemented with 10% (v/v) FBS and antibiotics at 37 °C in a humidified atmosphere containing 7.5% CO2. Cell viability was evaluated using the MTT cell proliferation assay. Cells were evaluated for apoptosis using a cell death detection ELISA (Cell Death Detection ELISAPLUS, Roche Diagnostics, Barcelona, Spain). The principle of this test is the detection of mono- and oligonucleosomes in the cytoplasmic fractions of cell lysates using biotinylated anti-histone and peroxidase-coupled anti-DNA antibodies. The amount of nucleosomes is photometrically quantified at 405 nm by the peroxidase activity retained in the immunocomplexes. Apoptosis was defined as the specific enrichment of mono- and oligonucleosomes in the cytoplasm and was calculated by dividing the absorbance of treated samples with the absorbance of untreated samples after correcting for the number of cells. The induction of apoptosis in each melanoma cell line after a 7 h treatment with 2 μM staurosporin (100% apoptotic cells) was used to calculate the number of apoptotic cells. For these assays, cells were plated in a 96-well plate at a density of 1000–2000 cells/well. Compounds were added once at the beginning of the experiments.

[3] = biological target: T1, free recombinant human DHFR (rHDHFR) (Homo sapiens, UniProt P00374); assay: Binding of polyphenols to free rHDHFR by fluorescence quenching titration
T1 construct: made in house; host or cells: Bombyx mori chrysalides
T1 sequence (P00374 1-187): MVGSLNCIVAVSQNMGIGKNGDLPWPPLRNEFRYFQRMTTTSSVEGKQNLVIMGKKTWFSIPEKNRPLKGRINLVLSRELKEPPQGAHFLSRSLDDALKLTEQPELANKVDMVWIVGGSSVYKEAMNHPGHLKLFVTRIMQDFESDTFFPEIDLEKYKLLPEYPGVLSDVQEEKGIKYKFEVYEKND
Procedure: Natural and synthetic derivatives of tea catechins have shown to be good inhibitors of human DHFR [7, 11, 16, 18]. To determine the ability of natural and synthetic polyphenols to bind DHFR, we performed a structure-activity study by analyzing the binding of these polyphenols to DHFR using fluorescence quenching. Effective binding to free recombinant human DHFR (rHDHFR) was determined by measuring the decrease in enzyme fluorescence that occurs upon the formation of the enzyme-inhibitor complex. […] The dissociation constants of the synthetic compounds were on the same order as those of the natural analogues, indicating the high DHFR binding capacities of these new derivatives.
The dissociation constants for the binding of polyphenols to free recombinant human DHFR (rHDHFR) were determined by fluorescence titration in an automatic-scanning FluoroMax-3 (Jobin Ybon, Horiba, Edison, NJ, USA) spectrofluorometer with 1.0 cm light path cells and a 150 W mercury-xenon light source. The formation of a binary complex between the enzyme (2.5 × 10^−7 M) and the ligand (from 0 to 40 µM) was followed by measuring the quenching of the tryptophan fluorescence of the enzyme upon the addition of microliter volumes of a concentrated stock solution of ligand. Experiments were performed at pH 7.5 in a buffer containing 2-(N-morpholino)ethanesulfonic acid (Mes, 0.025 M), sodium acetate (0.025 M), tris(hydroxymethyl)aminomethane (Tris 0.05 M), and NaCl (0.1 M). The temperature was controlled at 25 °C using a Haake D1G circulating bath with a heater and cooler. Fluorescence emission spectra were recorded when the human DHFR fluorescence was excited at 290 nm, and titrations were performed as described elsewhere.

Effect of pH on absorption spectra [1]: no significant changes
IC50 [2]: 1500 ± 400 nM
Kd ([3]; Table 2, restates Table 1, read-out: KD, order of binding strengths to rHDHFR depending on D-ring substitution): 900 nM
Kd ([3]; pH 7.5, 25 °C, fluorescence titration, read-out: Dissociation constant KD of free rHDHFR): 900 ± 100 nM
SMILES: COc1cc(C(=O)O[C@H]2Cc3c(O)cc(O)cc3O[C@@H]2c2ccc(O)c(O)c2)cc(OC)c1OC [TMCG]
